Results on 21 compounds are retold here after PMC7761982, “FDA-Approved Drugs with Potent In Vitro Antiviral Activity against Severe Acute Respiratory Syndrome Coronavirus 2” (Pharmaceuticals, 2020).

Structures can show the parent of a compound that is named as a salt. Where two headings read alike, the source gives them in different places.

Data set [1] concerns NRC-03-nhCoV. The data set can be described thus: microbe, parasite or virus in culture. It is filed as cell-based, SARS-CoV-2.
Another data set in a line: in vitro. The conditions noted are these: African green monkey, CC50 (Vero-E6).
The test system of data set [2] is NRC-03-nhCoV. Nature of the data set: Viral replication mechanism, plaque infectivity reduction assay. The data set is classed as cell-based, SARS-CoV-2. The method, then: The impact of tested drug on viral replication was determined as previously described. Vero-E6 cells were cultivated in a 6-well plate (10^5 cell/mL) for 24 h at 37 °C. Virus was inoculated directly to the cells and incubated for 1 h at 37 °C. The inocula containing the non-adsorbed viral particles were removed by washing cells three successive times with supplement-free medium. The test compound was added in varying concentrations to infected cells for another 1 h contact time. After removing the inocula containing the tested drug, 3 mL of DMEM supplemented with 2% agarose were added to the cell monolayer. Plates were left to solidify and incubated at 37 °C until the appearance of viral plaques. Cell monolayers were fixed in 10% formalin solution for 1 h and stained with crystal violet. Control wells contained Vero-E6 cells incubated with the virus. Plaques were counted and the percentage reduction in plaque formation was compared to the control wells.

Data set [3] relates to NRC-03-nhCoV. The data set can be described thus: Viral adsorption mechanism, plaque infectivity reduction assay. The conditions noted are these: for inhibition at 1.302 µM / inhibition at 2.6 µM / inhibition at 5.2 µM / inhibition at 10.4 µM: Severe acute respiratory syndrome coronavirus 2, read-out: Viral Adsorption, percent inhibition. It is filed as cell-based, SARS-CoV-2. Here is the method: The viral adsorption mechanism was assayed according to a protocol by Zhang and his colleagues with minor modifications. Vero-E6 cells were cultivated in a 6-well plate (10^5 cells/mL) for 24 h at 37 °C. Each tested drug was applied in 200 µL medium without supplements and co-incubated with the cells for 2 h at 4 °C. The inocula containing the non-absorbed drug were removed by washing cells three successive times with supplement-free medium. SARS-CoV-2 virus diluted to 104 PFU/well was co-incubated with the pretreated cells for 1 h, and then 3 mL DMEM supplemented with 2% agarose were added. Plates were left to solidify and then incubated at 37 °C to allow the formation of viral plaques. The plaques were fixed and stained as described above to calculate the percentage reduction in plaque formation compared to control wells, which comprised untreated Vero-E6 cells directly infected with NRC-03-nhCoV.

Data set [4] has as its system NRC-03-nhCoV. Nature of the data set: Virucidal mechanism, plaque infectivity reduction assay. It is filed as cell-based, SARS-CoV-2. The conditions noted are these: for inhibition at 1.302 µM / inhibition at 2.6 µM / inhibition at 5.2 µM / inhibition at 10.4 µM: Severe acute respiratory syndrome coronavirus 2, read-out: Virucidal, percent inhibition. Here is the method:
The virucidal mechanism was assayed following a previously described protocol. In a 6-well plate, Vero-E6 cells were cultivated (10^5 cells/mL) for 24 h at 37 °C and 200 µL of serum-free DMEM containing SARS-CoV-2 was added to each sample with promising inhibition. After 1 h incubation, the mixture was diluted 10-fold three times using serum-free medium, which still allowed viral particles to grow on Vero-E6 cells. Next, 100 µL of each dilution were added to the Vero-E6 cell monolayer. After 1 h contact time, a DMEM overlayer was added to the cell monolayer. Plates were left to solidify and incubated at 37 °C to allow the formation of viral plaques. The plaques were fixed and stained as described above to calculate the percentage reduction in plaque formation. This value was compared to control wells comprising cells infected with virus and not pretreated with the tested material.

Another data set has as its system MERS-CoV. Nature of the data set: microbe, parasite or virus in culture. It is filed as cell-based. As to conditions: equal concentrations of drug, plaque reduction assay. (In general: In a plaque reduction assay, fewer plaques than in the control indicate reduced infectivity or spread.)
Where [5] appears, read: Vero-E6 cells, 72 h, crystal violet, reduction of virus-induced CPE by 50%, read-out: IC50 (NRC-03-nhCoV).
Setting [6] is: read-out: CC50 (Vero-E6), half maximal cytotoxic concentration, MTT assay, Vero-E6 cells.
The mark [7] stands for this setting: Severe acute respiratory syndrome coronavirus 2, Vero C1008, 72 h, Vero-E6 cells, 72 h, crystal violet, reduction of virus-induced CPE by 50%, read-out: IC50 (NRC-03-nhCoV).
Where [8] appears, read: half maximal cytotoxic concentration, MTT assay, Vero-E6 cells.
[9] abbreviates: Severe acute respiratory syndrome coronavirus 2, read-out: Viral Replication, percent inhibition.
[10] abbreviates: Severe acute respiratory syndrome coronavirus 2, Vero C1008, negative log of the IC50 value against SARS-CoV-2, read-out: pIC50 (converted).

As for `NCC[C@H](O)C(=O)N[C@@H]1C[C@H](N)[C@@H](O[C@H]2O[C@H](CN)[C@@H](O)[C@H](O)[C@H]2O)[C@H](O)[C@H]1O[C@H]1O[C@H](CO)[C@@H](O)[C@H](N)[C@H]1O` [Amikacin sulphate], in the data set on NRC-03-nhCoV [1] (setting [5]), the IC50 was 16.8 µM. Further, the CC50 with Vero-E6 cells (setting [6]) stood at 2460 µM.
With `CC1(C)S[C@@H]2[C@H](NC(=O)Cc3ccccc3)C(=O)N2[C@H]1C(=O)O` [Benzathine penicillin], the IC50 with NRC-03-nhCoV [1] (setting [5]) stood at 15.8 µM. Further, the CC50 in the data set with Vero-E6 cells (setting [6]) amounted to 728 µM.
Take `O=C(N[C@H](CO)[C@H](O)c1ccc([N+](=O)[O-])cc1)C(Cl)Cl` [Chloramphenicol]: the IC50 with NRC-03-nhCoV [1] (setting [7]) is 16.9 µM. In addition, the CC50 with Vero-E6 cells (setting [6]) and in the data set “in vitro” (setting [8]) was 33.9 µM in each case.
Regarding `COc1ccc(C[C@@H](C)NC[C@H](O)c2ccc(O)c(NC=O)c2)cc1` [Formoterol Fumarate], the IC50 in the data set with NRC-03-nhCoV [1] (setting [5]) was found to be 71.8 µM. In the data set on Vero-E6 cells, this compound gave a CC50 of 569 µM.
`CC(C)Cc1ccc(C(C)C(=O)O)cc1` (centres unmarked) [Ibuprofen]: in the data set on NRC-03-nhCoV [1] (setting [7]), the IC50 turned out to be 88.7 µM. In addition, in “in vitro” (setting [8]), the CC50 is 1170 µM.
Regarding `COc1ccc2c(c1)c(CC(=O)O)c(C)n2C(=O)c1ccc(Cl)cc1` [Indomethacin], the IC50 with NRC-03-nhCoV [1] (setting [7]) stood at 8.51 µM. Moreover, the CC50 in “in vitro” (setting [8]) was determined as 672 µM.
For `O=C(c1ccccc1)c1ccc2n1CCC2C(=O)O` (centres unmarked) [Ketorolac Tromethamine], in that order: 153 µM and 2040 µM.
For `C[C@H]1COc2c(N3CCN(C)CC3)c(F)cc3c(=O)c(C(=O)O)cn1c23` [Levofloxacin], in that order: 13.8 µM and 2160 µM.
For `CC(=O)NC[C@H]1CN(c2ccc(N3CCOCC3)c(F)c2)C(=O)O1` [Linezolid], in that order: 16.3 µM and 816 µM.
Consider `Cc1cnc(NC(=O)C2=C(O)c3ccccc3S(=O)(=O)N2C)s1` [Meloxicam], for which the IC50 in the data set on NRC-03-nhCoV [1] (setting [7]) was determined as 12.4 µM. The compound further showed a CC50 in the data set “in vitro” (setting [8]) of 262 µM.
Turning to `Cc1c(N(C)CS(=O)(=O)O)c(=O)n(-c2ccccc2)n1C` [Metamizole sodium], the IC50 in the data set on NRC-03-nhCoV [1] (setting [5]) stood at 15 µM. Also, in the data set on Vero-E6 cells (setting [6]), the CC50 was 948 µM.
For the compound `C[C@H]1C[C@@H]2[C@H]([C@@H](O)C[C@@]3(C)[C@H]2CC[C@]3(O)C(=O)CO)[C@@]2(C)C=CC(=O)C=C12` [Methylprednisolone], in the data set with NRC-03-nhCoV [1] (setting [7]), the IC50 amounted to 90.4 µM. The CC50 in the data set “in vitro” (setting [8]) worked out at 3340 µM.
Take `COc1c(N2C[C@@H]3CCCN[C@@H]3C2)c(F)cc2c(=O)c(C(=O)O)cn(C3CC3)c12` [Moxifloxacin]: in the data set with NRC-03-nhCoV [1] (setting [7]), the IC50 was found to be 12.2 µM. The compound also showed a CC50 in “in vitro” (setting [8]) of 2240 µM.
For `c1ccc2c(CC3=NCCN3)cccc2c1` [Naphazoline], in that order: 9.52 µM and 636 µM.
As for `O=C(Nc1ccc([N+](=O)[O-])cc1Cl)c1cc(Cl)ccc1O` [Niclosamide], the inhibition (as a rule, how much of the control response was suppressed) at 1.302 µM stood at 23% in the data set on NRC-03-nhCoV [2] (setting [9]), 0% in the data set on NRC-03-nhCoV [3] and 16% with NRC-03-nhCoV [4]. Besides, the inhibition at 2.6 µM is 55% with NRC-03-nhCoV [2] (setting [9]), 0% with NRC-03-nhCoV [3] and 21% in the data set on NRC-03-nhCoV [4]. In addition, the inhibition at 5.2 µM in the data set with NRC-03-nhCoV [2] (Severe acute respiratory syndrome coronavirus 2, 5.2 µM, read-out: Viral Replication, percent inhibition) came to 68%; in the data set on NRC-03-nhCoV [3], 0%; in the data set on NRC-03-nhCoV [4], 21%. The inhibition at 10.4 µM in the data set on NRC-03-nhCoV [2] (Severe acute respiratory syndrome coronavirus 2, 10.4 µM, read-out: Viral Replication, percent inhibition) was found to be 70%; in the data set with NRC-03-nhCoV [3] it was 0%; with NRC-03-nhCoV [4], 37%. Further, the IC50 in the data set with NRC-03-nhCoV [1] (setting [7]) was 0.16 µM; in the data set on NRC-03-nhCoV [1] (setting [10]), 0.162 µM. The same compound gave a CC50 in the data set “in vitro” (setting [8]) of 205 µM. Also, in the data set on NRC-03-nhCoV [3] (concentration not given), the “inhibition during the viral adsorption stage” value is recorded as “negligible reduction in viral inhibition”. Further, the virucidal effect with NRC-03-nhCoV [4] (concentration not given) was 37%. The “antiviral effect on MERS-CoV compared with SARS-CoV-2” value with MERS-CoV was “equally effective against SARS-CoV-2 and MERS-CoV”.
Take `CC(=O)Oc1ccccc1C(=O)Nc1ncc([N+](=O)[O-])s1` [Nitazoxanide]: the “Viral Replication, percent inhibition” value in the data set on NRC-03-nhCoV [2] (5.2 µM) and with NRC-03-nhCoV [2] (10.4 µM) was “Toxic” each time. Further, the inhibition at 1.302 µM in the data set with NRC-03-nhCoV [2] (setting [9]) turned out to be 35%; in the data set with NRC-03-nhCoV [3], 0%; in the data set on NRC-03-nhCoV [4], 39%. For the same compound, the inhibition at 2.6 µM in the data set on NRC-03-nhCoV [2] (setting [9]) is 40%; in the data set on NRC-03-nhCoV [3], 1%; in the data set on NRC-03-nhCoV [4] it was 61%. The IC50 in the data set on NRC-03-nhCoV [1] (setting [7]) and in the data set on NRC-03-nhCoV [1] (setting [10]) was 1.29 µM throughout. In the data set “in vitro” (setting [8]), the CC50 was 665 µM. Further, the values for the inhibition at 5.2 µM with NRC-03-nhCoV [3] and in the data set on NRC-03-nhCoV [4] were 11% and 75%, respectively. Further, the inhibition at 10.4 µM with NRC-03-nhCoV [3] was determined as 11%; with NRC-03-nhCoV [4], 78%. In the data set with MERS-CoV, the “antiviral effect on MERS-CoV compared with SARS-CoV-2” value is “equally effective against SARS-CoV-2 and MERS-CoV”.
Consider `O=C1CN(/N=C/c2ccc([N+](=O)[O-])o2)C(=O)N1` [Nitrofurantoin], for which the IC50 in the data set with NRC-03-nhCoV [1] (Severe acute respiratory syndrome coronavirus 2, Vero C1008, 72 h, read-out: IC50 (NRC-03-nhCoV)) turned out to be 16.2 µM. Besides, the CC50 in “in vitro” stood at 599 µM.
Consider `C[C@@H]1[C@H](O)[C@@H](C)/C=C/C=C/CC/C=C/C=C/C=C/C=C/C(O[C@H]2O[C@H](C)[C@@H](O)[C@H](N)[C@@H]2O)CC2O[C@](O)(CC(O)C(O)CCC(O)CC(O)CC(O)CC(=O)O[C@H]1C)CC(O)C2C(=O)O` (some centres unmarked) [Nystatin], for which the IC50 in the data set with NRC-03-nhCoV [1] (setting [5]) turned out to be 161 µM. For the same compound, the CC50 in the data set with Vero-E6 cells (setting [6]) was determined as 183 µM.
Turning to `CN1C(C(=O)Nc2ccccn2)=C(O)c2ccccc2S1(=O)=O` [Piroxicam], the IC50 in the data set on NRC-03-nhCoV [1] (setting [7]) is 8.21 µM; in the data set with NRC-03-nhCoV [1] (setting [10]), 8.13 µM. Besides, the CC50 in the data set “in vitro” (setting [8]) came to 1800 µM.
As for `OCc1cc(C(O)CNCCCCCCOCCCCc2ccccc2)ccc1O` (centres unmarked) [Salmeterol], in the data set with NRC-03-nhCoV [1] (Severe acute respiratory syndrome coronavirus 2, Vero C1008, Vero-E6 cells, 72 h, crystal violet, reduction of virus-induced CPE by 50%, read-out: IC50 (NRC-03-nhCoV)), the IC50 is 1.5 µM. The compound further yielded a CC50 in the data set “in vitro” (setting [8]) of 4.1 µM.
Take Neomycin: the IC50 in the data set with NRC-03-nhCoV [1] (setting [5]) amounted to 18.1 µM. Moreover, in the data set on Vero-E6 cells (setting [6]), the CC50 stood at 833 µM.
